The results in this text go back to the Kinase Knowledgebase extract (Sharma et al. 2016).

The target in the experiment is EGFR (human) (UniProt P00533). Briefly: Assessment of EGFR Kinase Activity.

SMILES strings stand for the structures.

A word on the IC50: it is the concentration that gives 50% inhibition.

Chain of EGFR (human) (P00533 whole entry, looked up): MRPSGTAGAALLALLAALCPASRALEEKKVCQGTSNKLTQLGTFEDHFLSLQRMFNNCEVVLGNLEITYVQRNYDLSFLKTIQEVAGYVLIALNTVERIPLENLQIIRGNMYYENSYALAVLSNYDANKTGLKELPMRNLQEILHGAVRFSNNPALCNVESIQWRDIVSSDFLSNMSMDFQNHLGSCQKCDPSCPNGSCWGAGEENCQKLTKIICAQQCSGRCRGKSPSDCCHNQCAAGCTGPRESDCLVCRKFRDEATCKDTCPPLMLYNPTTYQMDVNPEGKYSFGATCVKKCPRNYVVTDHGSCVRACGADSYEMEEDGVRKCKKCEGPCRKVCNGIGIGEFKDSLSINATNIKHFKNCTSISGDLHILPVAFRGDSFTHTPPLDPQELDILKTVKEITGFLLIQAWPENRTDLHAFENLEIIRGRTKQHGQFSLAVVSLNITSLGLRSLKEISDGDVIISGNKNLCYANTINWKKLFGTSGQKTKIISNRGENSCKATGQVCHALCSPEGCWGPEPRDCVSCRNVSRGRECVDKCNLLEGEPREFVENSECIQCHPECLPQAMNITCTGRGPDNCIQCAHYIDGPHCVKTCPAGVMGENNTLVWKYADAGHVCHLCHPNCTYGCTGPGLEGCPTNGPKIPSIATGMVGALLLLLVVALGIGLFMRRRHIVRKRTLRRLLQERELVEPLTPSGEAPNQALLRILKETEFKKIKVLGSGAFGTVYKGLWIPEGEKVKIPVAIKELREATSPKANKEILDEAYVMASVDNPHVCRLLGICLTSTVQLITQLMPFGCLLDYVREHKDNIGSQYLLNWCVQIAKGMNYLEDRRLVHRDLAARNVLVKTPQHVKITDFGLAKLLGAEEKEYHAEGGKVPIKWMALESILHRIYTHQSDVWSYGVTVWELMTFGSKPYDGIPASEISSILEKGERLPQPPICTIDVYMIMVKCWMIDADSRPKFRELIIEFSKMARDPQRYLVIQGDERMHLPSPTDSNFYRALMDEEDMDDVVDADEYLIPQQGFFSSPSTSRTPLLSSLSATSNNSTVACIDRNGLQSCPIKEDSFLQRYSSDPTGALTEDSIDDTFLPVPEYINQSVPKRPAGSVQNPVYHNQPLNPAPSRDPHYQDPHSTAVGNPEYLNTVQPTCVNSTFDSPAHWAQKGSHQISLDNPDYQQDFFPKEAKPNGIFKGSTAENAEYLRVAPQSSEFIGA

As to `CP1(=O)CCN(Cc2ccc(-c3ccc4ncnc(Nc5ccc(Br)c(Cl)c5F)c4c3)o2)CC1`, the half-inhibitory concentration (IC50) was below 100 nM.

The compound `CP1(=O)CCN(Cc2ccc(-c3ccc4ncnc(Nc5ccc(OCc6cnccn6)c(Cl)c5)c4c3)o2)CC1` registered an IC50 below 100 nM.

With `CP1(=O)CCN(Cc2ccc(-c3ccc4ncnc(Nc5ccc(OCc6cccc(F)c6)c(Br)c5)c4c3)o2)CC1`, the IC50 was below 100 nM.

For `CP1(=O)CCN(C/C=C/c2ccc3ncnc(Nc4ccc(OCc5cccc(F)c5)c(Cl)c4)c3c2)CC1`, the IC50 was below 100 nM.

Consider `CP(C)(=O)CN1CCN(Cc2ccc(-c3ccc4ncnc(Nc5ccc(OCc6cccc(F)c6)c(Cl)c5)c4c3)o2)CC1`, for which the IC50 is below 100 nM.

`CP1(=O)CCN(Cc2ccc(-c3ccc4ncnc(Nc5cccc(Cl)c5F)c4c3)o2)CC1` gave a half-maximal inhibitory concentration (IC50) below 100 nM.

`CP1(=O)CCN(CCCc2ccc3ncnc(Nc4ccc(OCc5cccc(F)c5)c(Cl)c4)c3c2)CC1` came in with an IC50 below 100 nM.

On to `CP(C)(=O)CCNCc1ccc(-c2ccc3ncnc(Nc4ccc(OCc5cccc(F)c5)c(Cl)c4)c3c2)o1`, for which the IC50 is below 100 nM.

`CP1(=O)CCN(Cc2ccc(-c3ccc4ncnc(Nc5ccc(OCc6ccccn6)c(Cl)c5)c4c3)o2)CC1` yielded an IC50 below 100 nM.

In turn, `CCOP1(=O)CCN(Cc2ccc(-c3ccc4ncnc(Nc5ccc(OCc6cccc(F)c6)c(Cl)c5)c4c3)o2)CC1` had an IC50 below 100 nM.

In turn, `Cc1cccc(COc2ccc(Nc3ncnc4ccc(-c5ccc(CN6CCP(C)(=O)CC6)o5)cc34)cc2Cl)n1` registered an IC50 of 100 to 1000 nM.

Compound `Cc1cccc(COc2ccc(Nc3ncnc4ccc(-c5ccc(CN6CCP(C)(=O)CC6)o5)cc34)cc2Cl)[n+]1[O-]` registered an IC50 below 100 nM.

As to `CCN(CCP(C)(C)=O)Cc1ccc(-c2ccc3ncnc(Nc4ccc5c(cnn5Cc5cccc(F)c5)c4)c3c2)o1`, the 50% inhibitory concentration (IC50) was below 100 nM.

`CP1(=O)CCN(Cc2ccc(-c3ccc4ncnc(Nc5ccc6c(cnn6Cc6cccc(F)c6)c5)c4c3)o2)CC1`: the IC50 is below 100 nM.

`CP(C)(=O)CCN(CCO)Cc1ccc(-c2ccc3ncnc(Nc4ccc5c(cnn5Cc5cccc(F)c5)c4)c3c2)o1` registered an IC50 below 100 nM.

For the compound `C[C@@H](Nc1ncnc2ccc(-c3ccc(CN4CCP(C)(=O)CC4)o3)cc12)c1ccccc1`, the IC50 was below 100 nM.

In turn, `CP(C)(=O)CCNCC#Cc1ccc2ncnc(Nc3ccc(OCc4cccc(F)c4)c(Cl)c3)c2c1` came in with an IC50 below 100 nM.

The compound `CP1(=O)CCN(CC#Cc2ccc3ncnc(Nc4ccc5c(cnn5Cc5cccc(F)c5)c4)c3c2)CC1` registered an IC50 below 100 nM.

As to `CP1(=O)CCN(Cc2ccc(-c3ccc4ncnc(Nc5ccc(Br)cc5F)c4c3)o2)CC1`, the IC50 was in the range of 100 to 1000 nM.

For `CP(C)(=O)CNCc1ccc(-c2ccc3ncnc(Nc4ccc(OCc5cccc(F)c5)c(Cl)c4)c3c2)o1`, the IC50 was below 100 nM.

On to `COP(=O)(CCNCc1ccc(-c2ccc3ncnc(Nc4ccc(OCc5cccc(F)c5)c(Cl)c4)c3c2)o1)OC`, for which the IC50 is below 100 nM.

`C#Cc1cc(Nc2ncnc3ccc(-c4ccc(CN5CCP(C)(=O)CC5)o4)cc23)ccc1OCc1cccc(F)c1`: the IC50 was below 100 nM.

In turn, `Cc1ccc(Oc2ccc(Nc3ncnc4ccc(-c5ccc(CN6CCP(C)(=O)CC6)o5)cc34)cc2C)cn1` showed a 50% inhibitory concentration (IC50) below 100 nM.

The compound `CC1(C)COP(=O)(CCNCc2ccc(-c3ccc4ncnc(Nc5ccc(OCc6cccc(F)c6)c(Cl)c5)c4c3)o2)OC1` gave an IC50 below 100 nM.

Compound `CP1(=O)CCN(CC#Cc2ccc3ncnc(Nc4ccc(OCc5cccc(F)c5)c(Cl)c4)c3c2)CC1` displayed an IC50 below 100 nM.

Consider `CP(C)(=O)CCNCc1ccc(-c2ccc3ncnc(Nc4ccc5c(cnn5Cc5cccc(F)c5)c4)c3c2)o1`, for which the IC50 was below 100 nM.

With `CP1(=O)CCN(Cc2ccc(-c3ccc4ncnc(Nc5ccc(OCc6cccc(F)c6)c(Cl)c5)c4c3)o2)CC1`, the IC50 is below 100 nM.

`CP1(=O)CCN(Cc2ccc(-c3ccc4ncnc(Nc5ccc(OCc6cccc[n+]6[O-])c(Cl)c5)c4c3)o2)CC1` had an IC50 below 100 nM.
